# Measurements: the supplement of paper PMC10307832
# How the values were obtained:
# Test in all cases: relative viability (nuclei count vs DMSO), 5 days (fraction); higher = more cells survive
# IA-LM = tested on: IA-LM
# Method in brief: (§1)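 Relative viability is defined as nuclei in treated wells over nuclei in vehicle wells. Duplicate plates were run and medians reported. Lung cancer cell lines in 1536-well plates were dosed by pin tool one day after seeding, with one drug or with a fixed anchor-drug dose plus five library-drug doses (not always all listed) in √10 steps, and nuclei were counted after 5 days.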
# A549 = tested on: A549
# Method in brief: as §1
# EKVX = tested on: EKVX
# Method in brief: as §1
# HCC-44 = tested on: HCC-44
# Method in brief: as §1
# ABC-1 = tested on: ABC-1
# Method in brief: as §1
# NCI-H1703 = tested on: NCI-H1703
# Method in brief: as §1
# NCI-H2085 = tested on: NCI-H2085
# Method in brief: as §1
# NCI-H1993 = tested on: NCI-H1993
# Method in brief: as §1
# NCI-H2126 = tested on: NCI-H2126
# Method in brief: as §1
# Calu-6 = tested on: Calu-6
# Method in brief: as §1
# RERF-LC-KJ = tested on: RERF-LC-KJ
# Method in brief: as §1
# NCI-H1299 = tested on: NCI-H1299
# Method in brief: as §1
# EBC-1 = tested on: EBC-1
# Method in brief: as §1
structure (smiles),measurement,setting,value
O=c1cc(N2CCOCC2)oc2c(-c3cccc4c3sc3ccccc34)cccc12 + CS(=O)(=O)CCNCc1ccc(-c2ccc3ncnc(Nc4ccc(OCc5cccc(F)c5)c(Cl)c4)c3c2)o1 [Lapatinib] (partner 2 µM),relative viability,IA-LM; first compound 0.01 µM,0.764
same,relative viability,IA-LM; first compound 0.03162 µM,0.582
same,relative viability,IA-LM; first compound 0.1 µM,0.663
same,relative viability,IA-LM; first compound 0.3162 µM,0.86
same,relative viability,IA-LM; first compound 1 µM,0.602
same,relative viability,A549; first compound 0.01 µM,0.964
same,relative viability,A549; first compound 0.03162 µM,0.931
same,relative viability,A549; first compound 0.1 µM,0.997
same,relative viability,A549; first compound 0.3162 µM,0.979
same,relative viability,A549; first compound 1 µM,0.968
same,relative viability,EKVX; first compound 0.01 µM,0.218
same,relative viability,EKVX; first compound 0.03162 µM,0.216
same,relative viability,EKVX; first compound 0.1 µM,0.196
same,relative viability,EKVX; first compound 0.3162 µM,0.202
same,relative viability,EKVX; first compound 1 µM,0.219
same,relative viability,HCC-44; first compound 0.01 µM,1.01
same,relative viability,HCC-44; first compound 0.03162 µM,0.995
same,relative viability,HCC-44; first compound 0.1 µM,1.11
same,relative viability,HCC-44; first compound 0.3162 µM,0.946
same,relative viability,HCC-44; first compound 1 µM,1.07
same,relative viability,ABC-1; first compound 0.01 µM,1.07
same,relative viability,ABC-1; first compound 0.03162 µM,1.07
same,relative viability,ABC-1; first compound 0.1 µM,1.6
same,relative viability,ABC-1; first compound 0.3162 µM,1.04
same,relative viability,ABC-1; first compound 1 µM,1.2
same,relative viability,NCI-H1703; first compound 0.01 µM,1.36
same,relative viability,NCI-H1703; first compound 0.03162 µM,0.815
same,relative viability,NCI-H1703; first compound 0.1 µM,1.27
same,relative viability,NCI-H1703; first compound 0.3162 µM,1.17
same,relative viability,NCI-H1703; first compound 1 µM,1.01
same,relative viability,NCI-H2085; first compound 0.01 µM,0.796
same,relative viability,NCI-H2085; first compound 0.03162 µM,0.757
same,relative viability,NCI-H2085; first compound 0.1 µM,0.775
same,relative viability,NCI-H2085; first compound 0.3162 µM,0.734
same,relative viability,NCI-H2085; first compound 1 µM,0.751
same,relative viability,NCI-H1993; first compound 0.01 µM,0.823
same,relative viability,NCI-H1993; first compound 0.03162 µM,0.911
same,relative viability,NCI-H1993; first compound 0.1 µM,0.813
same,relative viability,NCI-H1993; first compound 0.3162 µM,0.764
same,relative viability,NCI-H1993; first compound 1 µM,0.829
same,relative viability,NCI-H2126; first compound 0.01 µM,0.826
same,relative viability,NCI-H2126; first compound 0.03162 µM,0.768
same,relative viability,NCI-H2126; first compound 0.1 µM,0.758
same,relative viability,NCI-H2126; first compound 0.3162 µM,0.748
same,relative viability,NCI-H2126; first compound 1 µM,0.718
same,relative viability,Calu-6; first compound 0.01 µM,1.08
same,relative viability,Calu-6; first compound 0.03162 µM,1.11
same,relative viability,Calu-6; first compound 0.1 µM,1.17
same,relative viability,Calu-6; first compound 0.3162 µM,1.08
same,relative viability,Calu-6; first compound 1 µM,1.05
same,relative viability,RERF-LC-KJ; first compound 0.01 µM,0.701
same,relative viability,RERF-LC-KJ; first compound 0.03162 µM,0.882
same,relative viability,RERF-LC-KJ; first compound 0.1 µM,0.906
same,relative viability,RERF-LC-KJ; first compound 0.3162 µM,0.902
same,relative viability,RERF-LC-KJ; first compound 1 µM,0.795
same,relative viability,NCI-H1299; first compound 0.01 µM,0.957
same,relative viability,NCI-H1299; first compound 0.03162 µM,0.957
same,relative viability,NCI-H1299; first compound 0.1 µM,0.969
same,relative viability,NCI-H1299; first compound 0.3162 µM,0.961
same,relative viability,NCI-H1299; first compound 1 µM,0.964
same,relative viability,EBC-1; first compound 0.01 µM,0.227
same,relative viability,EBC-1; first compound 0.03162 µM,0.207
same,relative viability,EBC-1; first compound 0.1 µM,0.246
same,relative viability,EBC-1; first compound 0.3162 µM,0.237
same,relative viability,EBC-1; first compound 1 µM,0.227
CCN(CC)CCCCNc1ncc2cc(-c3cc(OC)cc(OC)c3)c(NC(=O)NC(C)(C)C)nc2n1 + CS(=O)(=O)CCNCc1ccc(-c2ccc3ncnc(Nc4ccc(OCc5cccc(F)c5)c(Cl)c4)c3c2)o1 [Lapatinib] (partner 2 µM),relative viability,IA-LM; first compound 0.01 µM,0.805
same,relative viability,IA-LM; first compound 0.03162 µM,0.644
same,relative viability,IA-LM; first compound 0.1 µM,0.917
same,relative viability,IA-LM; first compound 0.3162 µM,0.793
same,relative viability,IA-LM; first compound 1 µM,1.05
same,relative viability,A549; first compound 0.01 µM,1.11
same,relative viability,A549; first compound 0.03162 µM,0.957
same,relative viability,A549; first compound 0.1 µM,1.45
same,relative viability,A549; first compound 0.3162 µM,0.972
same,relative viability,A549; first compound 1 µM,0.875
same,relative viability,EKVX; first compound 0.01 µM,0.187
same,relative viability,EKVX; first compound 0.03162 µM,0.181
same,relative viability,EKVX; first compound 0.1 µM,0.178
same,relative viability,EKVX; first compound 0.3162 µM,0.207
same,relative viability,EKVX; first compound 1 µM,0.207
same,relative viability,HCC-44; first compound 0.01 µM,1.07
same,relative viability,HCC-44; first compound 0.03162 µM,1.05
same,relative viability,HCC-44; first compound 0.1 µM,1.26
same,relative viability,HCC-44; first compound 0.3162 µM,1.28
same,relative viability,HCC-44; first compound 1 µM,0.865
same,relative viability,ABC-1; first compound 0.01 µM,1.33
same,relative viability,ABC-1; first compound 0.03162 µM,1.11
same,relative viability,ABC-1; first compound 0.1 µM,1.22
same,relative viability,ABC-1; first compound 0.3162 µM,1.34
same,relative viability,ABC-1; first compound 1 µM,1.22
same,relative viability,NCI-H1703; first compound 0.01 µM,0.912
same,relative viability,NCI-H1703; first compound 0.03162 µM,0.819
same,relative viability,NCI-H1703; first compound 0.1 µM,1.3
same,relative viability,NCI-H1703; first compound 0.3162 µM,1.35
same,relative viability,NCI-H1703; first compound 1 µM,0.774
same,relative viability,NCI-H2085; first compound 0.01 µM,0.791
same,relative viability,NCI-H2085; first compound 0.03162 µM,0.691
same,relative viability,NCI-H2085; first compound 0.1 µM,0.828
same,relative viability,NCI-H2085; first compound 0.3162 µM,0.85
same,relative viability,NCI-H2085; first compound 1 µM,0.68
same,relative viability,NCI-H1993; first compound 0.01 µM,0.85
same,relative viability,NCI-H1993; first compound 0.03162 µM,0.719
same,relative viability,NCI-H1993; first compound 0.1 µM,0.774
same,relative viability,NCI-H1993; first compound 0.3162 µM,0.785
same,relative viability,NCI-H1993; first compound 1 µM,0.738
same,relative viability,NCI-H2126; first compound 0.01 µM,0.786
same,relative viability,NCI-H2126; first compound 0.03162 µM,0.72
same,relative viability,NCI-H2126; first compound 0.1 µM,0.796
same,relative viability,NCI-H2126; first compound 0.3162 µM,0.808
same,relative viability,NCI-H2126; first compound 1 µM,0.726
same,relative viability,Calu-6; first compound 0.01 µM,1.09
same,relative viability,Calu-6; first compound 0.03162 µM,1.15
same,relative viability,Calu-6; first compound 0.1 µM,1.31
same,relative viability,Calu-6; first compound 0.3162 µM,1.24
same,relative viability,Calu-6; first compound 1 µM,1.02
same,relative viability,RERF-LC-KJ; first compound 0.01 µM,0.854
same,relative viability,RERF-LC-KJ; first compound 0.03162 µM,0.893
same,relative viability,RERF-LC-KJ; first compound 0.1 µM,0.907
same,relative viability,RERF-LC-KJ; first compound 0.3162 µM,0.949
same,relative viability,RERF-LC-KJ; first compound 1 µM,0.879
same,relative viability,NCI-H1299; first compound 0.01 µM,1
same,relative viability,NCI-H1299; first compound 0.03162 µM,0.977
same,relative viability,NCI-H1299; first compound 0.1 µM,0.995
same,relative viability,NCI-H1299; first compound 0.3162 µM,1.05
same,relative viability,NCI-H1299; first compound 1 µM,0.912
same,relative viability,EBC-1; first compound 0.01 µM,0.228
same,relative viability,EBC-1; first compound 0.03162 µM,0.231
same,relative viability,EBC-1; first compound 0.1 µM,0.209
same,relative viability,EBC-1; first compound 0.3162 µM,0.217
same,relative viability,EBC-1; first compound 1 µM,0.208
